In patent publication US8796259B2, “N3-heteroaryl substituted triazoles and N5-heteroaryl substituted triazoles useful as axl inhibitors” (Rigel Pharmaceuticals, Inc., priority 2006, dated 2014):

Target: T1, Axl (Homo sapiens, UniProt P30530)
T1 construct: endogenous in cells; host or cells: HeLa cells
T1 sequence (P30530 26-894): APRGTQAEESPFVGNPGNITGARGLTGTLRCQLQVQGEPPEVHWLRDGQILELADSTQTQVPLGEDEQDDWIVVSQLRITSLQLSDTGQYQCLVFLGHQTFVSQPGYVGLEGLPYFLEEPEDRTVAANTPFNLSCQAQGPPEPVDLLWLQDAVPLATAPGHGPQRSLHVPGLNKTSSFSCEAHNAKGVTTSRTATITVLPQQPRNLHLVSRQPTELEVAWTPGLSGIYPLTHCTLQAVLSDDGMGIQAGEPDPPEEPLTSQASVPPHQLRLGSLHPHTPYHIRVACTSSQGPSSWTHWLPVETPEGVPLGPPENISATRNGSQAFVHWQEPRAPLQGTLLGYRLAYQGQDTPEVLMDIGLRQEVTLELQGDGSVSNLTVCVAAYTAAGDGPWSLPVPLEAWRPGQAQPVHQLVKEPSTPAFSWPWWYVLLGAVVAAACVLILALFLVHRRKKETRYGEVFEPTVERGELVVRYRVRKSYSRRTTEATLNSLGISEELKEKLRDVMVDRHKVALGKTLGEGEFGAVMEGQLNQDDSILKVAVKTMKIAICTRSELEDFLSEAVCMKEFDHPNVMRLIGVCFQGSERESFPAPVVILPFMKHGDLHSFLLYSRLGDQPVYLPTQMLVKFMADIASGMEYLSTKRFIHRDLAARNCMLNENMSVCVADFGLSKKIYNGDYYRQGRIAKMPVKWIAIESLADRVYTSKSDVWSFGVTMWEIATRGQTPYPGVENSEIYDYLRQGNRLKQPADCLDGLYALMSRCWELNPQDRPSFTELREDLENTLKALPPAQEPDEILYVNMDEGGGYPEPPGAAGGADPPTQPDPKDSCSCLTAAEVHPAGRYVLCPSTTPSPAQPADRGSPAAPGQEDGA
Assay: Phospho-Akt in-cell Western assay (inhibition of Axl activity, Axl-antibody cross-linking stimulation)
Assay type: cell-based
Details: Hela cells, phospho-Akt readout; compounds of formula (Ia), Table 1
Outline: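 HeLa cells on poly-L-lysine were starved 24 h in 0.5% FCS/DMEM with 500 ng/mL Axl/Fc, pre-treated with compound 1 h at 37 °C, then stimulated 5 min by cross-linked mouse anti-Axl/biotin anti-mouse antibody clusters. After formaldehyde fixation, phospho-Akt was detected by rabbit anti-phospho-Akt and HRP secondary with chemiluminescence read-out.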

Structure (SMILES)	IC50 [µM]
Cc1cc(Nc2nc(N)n(-c3nnc(C)c4ccsc34)n2)cnc1N1CCN([C@H]2C[C@@H]3CC[C@H]2C3)CC1 [compound 112, 1-(4-methylthieno [3,2-d]pyridazine-7-yl)-N^3-(2-(4-(1S,2S,4R)-bicyclo[2.2.1]heptan-2-ylpiperazin-1-yl)-3-methylpyridin-5-yl)-1H-1,2,4-triazole-3,5-diamine]	> 20
Cc1csc2c(-n3nc(Nc4ccc(N5CCN(CC6CC6)[C@@H](C)C5)nc4)nc3N)nc(Cl)nc12 [compound 115, 1-(2-chloro-7-methyithieno [3,2-d]pyrimidin-4-yl)-N^3-(2-(4-cyclopropyl-methyl-3-(S)-methyl-piperazin-1-yl)pyridin-5-yl)-1H-1,2,4-triazole-3,5-diamine]	1 to 10
Cc1csc2c(-n3nc(Nc4ccc(Br)nc4)nc3N)ncnc12 [compound 118, 1-(7-methylthieno [3,2-d]pyrimidin-4-yl)-N^3-(2-bromopyridin-5-yl)-1H-1,2,4-triazole-3,5-diamine]	> 20
Cc1csc2c(-n3nc(Nc4ccc(C=CCN5CCN(C)CC5)nc4)nc3N)ncnc12 [compound 123, 1-(7-methylthieno [3,2-d]pyrimidin-4-yl)-N^3-(2-(3-(4-methyl-piperazin-1-yl)propen-1-yl)pyridin-5-yl)-1H-1,2,4-triazole-3,5-diamine]	< 1
Cc1csc2c(-n3nc(Nc4ccc(C=CCN5CCN(C(C)C)CC5)nc4)nc3N)ncnc12 [compound 124, 1-(7-methylthieno [3,2-d]pyrimidin-4-yl)-N^3-(2-(3-(4-isopropyl-piperazin-1-yl)propen-1-yl)pyridin-5-yl)-1H-1,2,4-triazole-3,5-diamine]	< 1
Cc1csc2c(-n3nc(Nc4ccc(C=CCN5CCN(C6CCCC6)CC5)nc4)nc3N)ncnc12 [compound 125, 1-(7-methylthieno [3,2-d]pyrimidin-4-yl)-N^3-(2-(3-(4-cyclopentyl-piperazin-1-yl)propen-1-yl)pyridin-5-yl)-1H-1,2,4-triazole-3,5-diamine]	< 1
Cc1csc2c(-n3nc(Nc4ccc(C=CCN5CCOCC5)nc4)nc3N)ncnc12 [compound 126, 1-(7-methylthieno [3,2-d]pyrimidin-4-yl)-N^3-(2-(3-(morpholin-4-yl)propen-1-yl)pyridin-5-yl)-1H-1,2,4-triazole-3,5-diamine]	< 1
Cc1csc2c(-n3nc(Nc4ccc(C=CCN5CCCCC5)nc4)nc3N)ncnc12 [compound 127, 1-(7-methylthieno [3,2-d]pyrimidin-4-yl)-N^3-(2-(3-(piperidin-1-yl)propen-1-yl)pyridin-5-yl)-1H-1,2,4-triazole-3,5-diamine]	< 1
Cc1csc2c(-n3nc(Nc4ccc(C=CCN5CCC(N6CCN(C)CC6)CC5)nc4)nc3N)ncnc12 [compound 128, 1-(7-methylthieno [3,2-d]pyrimidin-4-yl)-N^3-(2-(3-(4-(4-methyl-piperazin-1-yl)piperidin-1-yl)propen-1-yl)pyridin-5-yl)-1H-1,2,4-triazole-3,5-diamine]	< 1
Cc1csc2c(-n3nc(Nc4ccc(C=CCN5CCC(N6CCCCC6)CC5)nc4)nc3N)ncnc12 [compound 129, 1-(7-methylthieno [3,2-d]pyrimidin-4-yl)-N^3-(2-(3-(4-piperidin-1-ylpiperidin-1-yl)propen-1-yl)pyridin-5-yl)-1H-1,2,4-triazole-3,5-diamine]	< 1
Cc1cc(Nc2nc(N)n(-c3cc(-c4ccccc4)ncn3)n2)cnc1N1CCC(N2CCCC2)CC1 [compound 130, 1-(6-phenyl-pyrimidine-4-yl)-N^3-(3-methyl-2-(4-pyrrolidin-1-ylpiperidin-1-yl)pyridin-5-yl)-1H-1,2,4-triazole-3,5-diamine]	< 1
Cc1csc2c(-n3nc(Nc4cnc(N5CCC(CN6CCCCC6)CC5)nc4)nc3N)nc(Cl)nc12 [compound 131, 1-(2-chloro-7-methylthieno [3,2-d]pyrimidin-4-yl)-N^3-(2-(4-(piperidin-1-ylmethyl)piperidin-1-yl)pyrimidin-5-yl)-1H-1,2,4-triazole-3,5-diamine]	< 1

Second part, the molecule after the results:

IC50 [µM]	Structure (SMILES)
< 1	COc1cc2ncnc(-n3nc(Nc4ccc(C=CCN5CCN(C(C)C)CC5)nc4)nc3N)c2cc1OC [compound 113, 1-(6,7-dimethoxy-quinazoline-4-yl)-N^3-(2-(3-(4-isopropyl-piperazin-1-yl)propen-1-yl)pyridine-5-yl)-1H-1,2,4-triazole-3,5-diamine]
< 1	COc1cc2ncnc(-n3nc(Nc4ccc(N5CCN(CC6CC6)[C@@H](C)C5)nc4)nc3N)c2cc1OC [compound 114, 1-(6,7-dimethoxy-quinazoline-4-yl)-N^3-(2-(4-cyclo-propylmethyl-3-(S)-methyl-piperazin-1-yl)pyridin-5-yl)-1H-1,2,4-triazole-3,5-diamine]
< 1	Cc1csc2c(-n3nc(Nc4ccc(N5CCN(CC6CC6)[C@@H](C)C5)nc4)nc3N)ncnc12 [compound 116, 1-(7-methyl-thieno[3,2-d]pyrimidin-4-yl)-N^3-(2-(4-cyclo-propylmethyl-3-(S)-methyl-piperazin-1-yl)pyridin-5-yl)-1H-1,2,4-triazole-3,5-diamine]
< 1	Cc1csc2c(-n3nc(Nc4ccc(N5CCN(CC6CC6)[C@@H](C)C5)nc4)nc3N)nc(Cl)nc12 [compound 117, 1-(2-chloro-7-methylthieno [3,2-d]pyrimidin-4-yl)-N^3-(2-(4-cyclopropyl-methyl-3-(S)-methyl-piperazin-1-yl)pyridin-5-yl)-1H-1,2,4-triazoie-3,5-diamine]
< 1	Cc1csc2c(-n3nc(Nc4ccc(C=CCN5CCCC5)nc4)nc3N)ncnc12 [compound 119, 1-(7-methylthieno [3,2-d]pyrimidin-4-yl)-N^3-(2-(3-(pyrrolidin-1-yl)propen-1-yl)pyridin-5-yl)-1H-1,2,4-triazole-3,5-diamine]
< 1	Cc1csc2c(-n3nc(Nc4ccc(/C=C/CN5CCC(N(C)C)C5)nc4)nc3N)ncnc12 (stereo not shown) [compound 120, 1-(7-methylthieno [3,2-d]pyrimidin-4-yl)-N^3-(2-(3-(3-dimethyl-amino-pyrrolidin-1-yl)propen-1-yl)pyridin-5-yl)-1H-1,2,4-triazole-3,5-diamine]
< 1	CCN(CC)C1CCN(C/C=C/c2ccc(Nc3nc(N)n(-c4ncnc5c(C)csc45)n3)cn2)C1 (stereo not shown) [compound 121, 1-(7-methylthieno [3,2-d]pyrimidin-4-yl)-N^3-(2-(3-(3-diethyl-amino-pyrrolidin-1-yl)propen-1-yl)pyridin-5-yl)-1H-1,2,4-triazole-3,5-diamine]
< 1	Cc1csc2c(-n3nc(Nc4ccc(C=CCN5CCC(N6CCCC6)CC5)nc4)nc3N)ncnc12 [compound 122, 1-(7-methylthieno [3,2-d]pyrimidin-4-yl)-N^3-(2-(3-(4-pyrrolidin-1-yl-piperidin-1-yl)propen-1-yl)pyridin-5-yl)-1H-1,2,4-triazole-3,5-diamine]

Same assay, conditions: Hela cells, phospho-Akt readout; compounds of formula (Ib), Table 2

IC50 [µM]	Structure (SMILES)
> 20	Cc1cc(Nc2nc(N)nn2-c2nnc(C)c3ccsc23)cnc1N1CCN([C@H]2C[C@@H]3CC[C@H]2C3)CC1 [compound 132, 1-(4-methylthieno[2,3-d]pyridazin-7-yl)-N^5-(2-(4-(1S,2S,4R)-bicyclo[2.2.1]heptan-2-ylpiperazin-1-yl)-3-methylpyridin-5-yl)-1H-1,2,4-triazole-3,5-diamine]
< 1	Cc1csc2c(-n3nc(N)nc3Nc3ccc(C=CCN4CCC(N5CCN(C)CC5)CC4)nc3)ncnc12 [compound 133, 1-(7-methylthieno[3,2-d]pyrimidin-4-yl)-N^5-(2-(3-(4-(4-methylpiperazin-1-yl)piperidin-1-yl)propen-1-yl)pyridin-5-yl)-1H-1,2,4-triazole-3,5-diamine]
